This note sets out measurements from patent publication US20060270634A1, “Acetal phosphate-derived LPA mimics, PPARgamma activators, and autotaxin inhibitors” (priority 2005, published 2006).

Entries after “also recorded” stand apart in the source; their conditions may differ. Read-outs that look alike come from different tables or passages of the source.

One assay concerns the target T1, PPARγ (Homo sapiens, UniProt P37231).
T1 construct: expressed in transfected cells; host or cells: CV1 cells (African green monkey kidney)
T1 sequence (P37231 1-505): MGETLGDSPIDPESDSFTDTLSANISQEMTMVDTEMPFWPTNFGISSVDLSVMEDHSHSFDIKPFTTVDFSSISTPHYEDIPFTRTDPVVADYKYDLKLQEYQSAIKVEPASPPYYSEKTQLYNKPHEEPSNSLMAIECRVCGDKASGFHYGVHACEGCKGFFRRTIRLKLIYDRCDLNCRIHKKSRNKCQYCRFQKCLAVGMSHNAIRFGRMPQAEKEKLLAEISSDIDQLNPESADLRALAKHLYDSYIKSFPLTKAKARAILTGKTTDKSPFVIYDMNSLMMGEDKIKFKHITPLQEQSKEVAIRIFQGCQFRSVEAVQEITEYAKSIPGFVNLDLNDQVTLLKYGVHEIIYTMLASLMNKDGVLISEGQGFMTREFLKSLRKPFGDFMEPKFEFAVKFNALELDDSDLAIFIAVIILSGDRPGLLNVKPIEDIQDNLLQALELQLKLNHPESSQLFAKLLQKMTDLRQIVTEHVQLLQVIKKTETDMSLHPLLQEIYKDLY
In words: PPARγ activation, PPRE-Acox-Rluc reporter gene assay in CV1 cells. The conditions noted are these: for PPARγ: Table 3; for PPARγ activation in words: FIG. 9: 10 μM, 20 h. It is filed as cell-based. The method, then: (§1) The biological effects of all synthesized compounds were testing using three high-throughput assays. First, intracellular calcium transients in rat hepatoma (RH777, an LPA receptor null cell) cell lines individually expressing either LPA1, LPA2, and LPA3 receptors were analyzed to evaluate compounds as agonists or antagonists. […] The PPRE-Acox-Rluc construct contains a renilla luciferase coding region, an acyl-CoA oxidase coding region, and a PPAR response element coding region. Third, inhibition of the lysophospholipase D autotoxin was determined using a previously described procedure.
PPARγ is a lipid-activated transcription factor that belongs to the nuclear hormone superfamily. The inventors examined the activity of all synthesized Darmstoff analogs as PPARγ activators in vitro in CV1 cells using a PPRE-Acox-Rluc reporter gene assay. Rosiglitazone, a known PPARγ agonist, was used as a positive control for comparison.
RH7777 cells, which lack LPA GPCR, were stably transfected with individual LPA1, LPA2 and LPA3 receptors and used for the in vitro screening.
Unlike the enantiospecific responses compounds at LPA GPCR by APA analogs, there was no stereoselectivity observed in PPARγ activation by these analogs.

Assay [1] addresses lysophospholipase D (autotaxin, ATX) (Homo sapiens, UniProt Q13822). Briefly: Inhibition of lysophospholipase D autotaxin. It is filed as biochemical. The conditions noted are these: Table 3. The method, then:
as §1
LPA is liberated as the product of lysophosphatidylcholine hyrolysis by the lysophospholipase D, autotaxin (ATX). The inventors screened Darmstoff analogs for ATX inhibition. As indicated by the data, all tested analogs are capable of ATX inhibition independently of their ligand properties at LPA GPCR and PPARγ.

A further assay has as its target LPA2 (Homo sapiens, UniProt Q9HBW0). In words: Ca2+ transients in RH7777 cells expressing LPA2 (agonist / inhibition of LPA response). The note with it: for LPA2 effect in words: *transient.
For another assay, the target named is T2, LPA3 (Homo sapiens, UniProt Q9UBY5).
T2 sequence (Q9UBY5 1-353): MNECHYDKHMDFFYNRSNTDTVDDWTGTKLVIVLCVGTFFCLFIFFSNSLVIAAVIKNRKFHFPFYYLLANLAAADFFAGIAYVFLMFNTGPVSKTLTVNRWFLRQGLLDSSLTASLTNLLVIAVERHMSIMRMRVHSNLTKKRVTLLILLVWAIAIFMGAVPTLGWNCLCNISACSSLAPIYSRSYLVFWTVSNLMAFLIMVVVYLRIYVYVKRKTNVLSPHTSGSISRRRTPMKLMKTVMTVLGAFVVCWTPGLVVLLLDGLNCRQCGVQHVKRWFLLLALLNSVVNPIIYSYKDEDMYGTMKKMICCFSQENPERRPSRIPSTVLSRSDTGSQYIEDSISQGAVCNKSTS
In words: Ca2+ transients in RH7777 cells expressing LPA3 (agonist / inhibition of LPA response). The note with it: for Ki: read-out: LPA3 (Ki); for EC50: read-out: LPA3 EC50; for IC50: read-out: LPA3 IC50; for LPA3 effect in words: Tables 2, 4, 6.

In the next assay the test system is PC3 cells. In words: Calcium mobilization response in PC3 cells. In kind it is cell-based. For orientation: Calcium assays in cells follow changes in intracellular calcium, usually with a dye or a luminescent sensor.
The target in the next assay is LPA1 (Homo sapiens, UniProt Q92633). In words: Ca2+ transients in RH7777 cells expressing LPA1 (agonist / inhibition of LPA response). The conditions noted are these: for LPA1 effect in words: Tables 2, 4, 6; for IC50: read-out: LPA1 IC50.
Setting [2] is: read-out: LPA1 EC50, Table 5, PA 8:0 analogs.

Chain of LPA1 (Q92633 whole entry, species assumed): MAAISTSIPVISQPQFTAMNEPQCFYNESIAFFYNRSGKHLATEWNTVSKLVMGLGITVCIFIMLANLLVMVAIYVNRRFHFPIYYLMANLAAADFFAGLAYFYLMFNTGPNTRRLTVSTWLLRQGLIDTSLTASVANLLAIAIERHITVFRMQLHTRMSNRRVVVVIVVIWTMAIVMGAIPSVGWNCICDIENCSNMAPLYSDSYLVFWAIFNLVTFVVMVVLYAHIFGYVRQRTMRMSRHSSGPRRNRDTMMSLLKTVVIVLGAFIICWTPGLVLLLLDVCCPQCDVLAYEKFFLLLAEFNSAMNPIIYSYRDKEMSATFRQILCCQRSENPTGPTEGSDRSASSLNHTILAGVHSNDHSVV
Chain of LPA2 (Q9HBW0 whole entry, species assumed): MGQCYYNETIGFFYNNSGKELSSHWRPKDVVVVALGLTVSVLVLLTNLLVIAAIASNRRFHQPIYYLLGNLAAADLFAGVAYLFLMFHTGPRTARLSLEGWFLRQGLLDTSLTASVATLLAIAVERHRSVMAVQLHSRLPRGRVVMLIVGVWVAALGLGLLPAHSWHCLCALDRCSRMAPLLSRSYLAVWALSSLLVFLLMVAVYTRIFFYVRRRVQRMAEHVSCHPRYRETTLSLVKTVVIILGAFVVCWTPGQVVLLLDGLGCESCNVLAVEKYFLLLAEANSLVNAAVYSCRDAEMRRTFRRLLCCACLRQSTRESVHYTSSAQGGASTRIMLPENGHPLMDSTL
Description for LPA1: (§2) Synthesized compounds were tested for induction and inhibition of LPA-induced calcium transients in rat hepatoma (RH7777) cell lines that stably express individual LPA1, LPA2, and LPA3 receptors as described in the literature using a FlexStation II automated fluorimeter (Molecular Devices, Sunnyvale, Calif.).
Description for LPA2: as §2
Description for LPA3: as §2

With `CCCCCCCCC=CCCCCCCCC1OCC(COP(=O)([O-])O)O1.[K+]` (mixture of isomers) [Analog 13], the PPARγ entry on PPARγ is on record as “Agonist”. In addition, in assay [1], the “ATX (% inhib.)” value was 30% and half-maximal inhibition (IC50) was put at 141 nM. Moreover, on LPA2, the “LPA2 agonist/antagonist activity in words” value is recorded as “inhibited LPA1-3 receptors”. Also, at LPA2 (read-out: LPA2 IC50, Table 3), the IC50 (as a rule, the concentration needed to halve the response being measured) is more than 30000 nM. For the same compound, the “LPA3 agonist/antagonist activity in words” value on LPA3 is “LPA1/3 antagonist activity”. For the same compound, on LPA3 (Table 3), the Ki (usually the equilibrium dissociation constant of an inhibitor or competing ligand from its target) came out at 548 nM; the EC50 (as a rule, the concentration needed to bring the measured effect to its halfway point) was more than 30000 nM; the IC50 stood at 527 nM.
In the case of `CCCCCCCC/C=C\CCCCCCCC1OCC(COP(=O)([O-])O)O1.[K+]` (centres unmarked) [Analog 13, 2-Heptadec-8-enyl-(1,3)dioxolan-4yl methyl dipotassium phosphate], the IC50 in the assay with PC3 cells (Homo sapiens, PC-3, read-out: PC3 cells IC50) stood at 1500 nM; with PC3 cells (read-out: PC3 cells IC50, listed as 18:1 Δ 9 acetal phosphate), 1040 nM; on LPA2 (RH-LPA2 cells IC50, inhibition of 200 nM LPA response), 460 nM; at LPA2 (RH-LPA2 cells IC50, inhibition of 300 nM LPA response), 777 nM; on LPA3 (200 nM LPA) it was 527 nM. In addition, the “LPA2 effect in words” value on LPA2 is on record as “full agonist”. Moreover, on LPA2 (LPA2 EC50, *transient), the EC50 worked out at 68 nM.
`CCCCCCCC/C=C\CCCCCCCC1OCC(COP([O-])(O)=S)O1.[K+]` (centres unmarked) [Analog 14, 2-Heptadec-8-enyl-(1,3)dioxolan-4yl methyldipotassium thiophosphate]: the EC50 is 1370 nM with PC3 cells (Homo sapiens, PC-3, compound alone); 981 nM on LPA1 (LPA1 EC50); 2170 nM at LPA1 (RH-LPA1 cells EC50, compound alone); 34 nM at LPA2 (LPA2 EC50, *transient); 639 nM on LPA2 (RH-LPA2 cells EC50, compound alone); 639 nM at LPA3. For the same compound, the Emax with PC3 cells (Homo sapiens, PC-3, of the LPA-alone max. response, read-out: PC3 cells maximal response) was approximately 86%; on LPA1 (RH7777, read-out: RH-LPA1 cells maximal response), approximately 50%; on LPA2 (RH7777, read-out: RH-LPA2 cells maximal response), approximately 74%. Besides, the “PC3 cells effect of compound alone” value in the assay on PC3 cells (compound alone) was “stimulatory effect. Its maximal”. Further, the “LPA1 effect in words” value on LPA1 is recorded as “Partial agonist”. In addition, the “RH-LPA1 cells effect of compound alone” value on LPA1 (compound alone) is listed as “stimulatory effect. Its maximal”. Further, at LPA2, the “LPA2 effect in words” value was “almost full agonist”. For the same compound, at LPA2 (compound alone), the “RH-LPA2 cells effect of compound alone” value is on record as “stimulatory effect. Its maximal”. Moreover, the “LPA3 effect in words” value on LPA3 is “Partial agonist”.
`CCCCCCCCC=CCCCCCCCC1OCC(COP(=O)([O-])O)O1.[K+]` (centres unmarked) [Analog 37]: the PPARγ result on PPARγ is recorded as “Agonist”. In addition, in assay [1], the “ATX (% inhib.)” value is listed as 46% and the IC50 amounted to 238 nM. The EC50 at LPA2 (read-out: LPA2 EC50, Table 3) was more than 10000 nM. Also, the IC50 on LPA2 (read-out: LPA2 IC50, Table 3) was more than 30000 nM. Moreover, on LPA3, the “LPA3 agonist/antagonist activity in words” value is “LPA3 antagonists”. In addition, at LPA3 (Table 3), the Ki came out at 241 nM, the EC50 is more than 30000 nM and the IC50 turned out to be 484 nM.
As to `CCCCCCCCOC[C@H](COP(=O)(O)O)OCCCCCCCC` [Cpd 12b, (2R)-APA 8:0], the “LPA1 agonist/antagonist activity in words” value on LPA1 is reported as “agonists; also recorded: Enantiospecific activation”. In addition, the Emax was found to be 57% at LPA1 (RH7777, read-out: LPA1 (Emax)) and 109% on LPA3 (RH7777, read-out: LPA3 (Emax)). For the same compound, on LPA1, the “LPA1 effect in words” value is reported as “Partial agonist”. The 50% effective concentration (EC50) on LPA1 (read-out: LPA1 EC50) worked out at 3260 nM; at LPA1 (setting [2]) it was 3260 nM; on LPA2 (LPA2 EC50, *transient) it was 2530 nM; on LPA3 it was 164 nM; at LPA3 (Table 5) it was 164 nM. For the same compound, the “LPA2 effect in words” value at LPA2 is listed as “Partial agonist”. In addition, the “LPA3 agonist/antagonist activity in words” value at LPA3 is listed as “agonists; also recorded: Enantiospecific activation”. Besides, the “LPA3 effect in words” value on LPA3 was “Full agonist”.
Turning to `CCCCCCCCOC[C@@H](COP(O)(O)=S)OCCCCCCCC` [Cpd 13a, dialkyl thiophosphatidic acid 8:0], the inhibition constant (Ki) at LPA1 (read-out: LPA1 (Ki), Table 5) turned out to be 139 nM; at LPA3 (Table 5) it was 67 nM. For the same compound, the IC50 was 328 nM at LPA1 (200 nM LPA), 328 nM at LPA1 (Table 5), 184 nM at LPA3 (200 nM LPA) and 184 nM at LPA3 (Table 5). In addition, the “LPA2 effect in words” value on LPA2 is given as “Weak stimulation *transient”.
With `CCCCCCCCOC[C@H](COP(O)(O)=S)OCCCCCCCC` [Cpd 13b, 2(R)-ATPA 8:0], the “LPA1 agonist/antagonist activity in words” value at LPA1 is recorded as “agonists; also recorded: Enantiospecific activation”. The Emax at LPA1 (RH7777, read-out: LPA1 (Emax)) came to 30%; at LPA2 (RH7777, read-out: LPA2 (Emax)) it was 27%; on LPA3 (RH7777, read-out: LPA3 (Emax)) it was 109%; on LPA3 (RH7777, read-out: LPA3 Emax) it was 109%. Also, the “LPA1 effect in words” value at LPA1 is “Partial agonist”. Moreover, the EC50 at LPA1 (read-out: LPA1 EC50) is 695 nM; at LPA1 (setting [2]) it was 695 nM; on LPA2 (LPA2 EC50, *transient), 1020 nM; on LPA3 it was 3 nM; on LPA3 (Table 5), 3 nM; at LPA3 (text) it was 3 nM. Also, the “LPA2 agonist/antagonist activity in words” value on LPA2 is “weak and partial agonist”. In addition, the “LPA2 effect in words” value at LPA2 is listed as “Partial agonist”. For the same compound, the “LPA3 agonist/antagonist activity in words” value at LPA3 is listed as “agonists; also recorded: potent LPA3 receptor subtype-selective agonist; also recorded: full agonist”. Moreover, at LPA3, the “selectivity for LPA3 over LPA1” value was approximately 230 fold. In addition, the “selectivity for LPA3 over LPA2” value on LPA3 is approximately 1900 fold. In addition, on LPA3, the “LPA3 effect in words” value is given as “Full agonist”.
As for `CCCCCCCCNC(=O)[C@H](COP(=O)(O)O)NC(=O)CCCCCCC` [Cpd 19a], the “PPARγ activation in words” value on PPARγ is reported as “agonist of PPARγ”. For the same compound, the “LPA1 agonist/antagonist activity in words” value on LPA1 is reported as “no effect”. For the same compound, on LPA2, the “LPA2 agonist/antagonist activity in words” value is listed as “no effect”. In addition, on LPA3, the “LPA3 agonist/antagonist activity in words” value is “selective LPA3 antagonist”. On LPA3 (Table 5), the Ki was 196 nM and the IC50 was 414 nM.
Turning to `CCCCCCCCNC(=O)[C@@H](COP(=O)(O)O)NC(=O)CCCCCCC` [Cpd 19b], the “PPARγ activation in words” value on PPARγ was “no effect”. For the same compound, at LPA1, the “LPA1 agonist/antagonist activity in words” value was “no effect”. Also, the “LPA2 agonist/antagonist activity in words” value on LPA2 is reported as “no effect”. Also, at LPA3, the “LPA3 agonist/antagonist activity in words” value is reported as “true LPA3 receptor specific antagonist”. Also, at LPA3 (Table 5), the Ki was determined as 489 nM and the IC50 was 935 nM.
Turning to `CCCCCCCC/C=C\CCCCCCCC(=O)OC[C@@H](O)COP(=O)(O)O` [Oleoyl-LPA, reference compound], the “LPA1 agonist/antagonist activity in words” value on LPA1 is “agonist of LPA1-3”. For the same compound, the “LPA2 agonist/antagonist activity in words” value at LPA2 is reported as “agonist of LPA1-3”. Further, the “LPA3 agonist/antagonist activity in words” value on LPA3 is recorded as “agonist of LPA1-3”.
